The values below are quoted from earlier work in patent US20150275270A1, “COMPOSITIONS AND METHODS FOR THE ANALYSIS OF DEGRADED NUCLEIC ACIDS” (ALTHEADX, INC., priority 2005, published 2015).

For the data set the following is noted: clinical studies / post-marketing reports.
As for `Cc1c(C)c2c(c(C)c1O)CCC(C)(COc1ccc(CC3SC(=O)NC3=O)cc1)O2` (stereo not drawn) [Troglitazone, troglitazone], the “drug-induced hepatotoxicity (clinical reports)” value (“drug-induced hepatotoxicity” for short) is “severe idiosyncratic hepatocellular injury”. Take `CCc1ccc(CCOc2ccc(CC3SC(=O)NC3=O)cc2)nc1` (stereo not drawn) [pioglitazone]: the “drug-induced hepatotoxicity” value is “no evidence of drug-induced hepatotoxicity”. In the case of `CN(CCOc1ccc(CC2SC(=O)NC2=O)cc1)c1ccccn1` (stereo not drawn) [rosiglitazone], the “drug-induced hepatotoxicity” value is listed as “no evidence of drug-induced hepatotoxicity”.
